{"source": "patent US20040076673A1", "about": "“Oral pharmaceutical composition containing a block copolymer” (priority 2000, published 2004)", "key": {"Solubility Measurements": {"experiment": "Solubility Measurements", "type": "physicochemical"}, "[1]": {"experiment": "pH shift dissolution method (0.1N HCl, then shift to pH 6.5)", "type": "physicochemical", "conditions": "in vitro tests; with block copolymers versus without", "protocol": "pH Shift Dissolution Method\nThe formulations were weighed into hard gelatin capsules (equivalent to 25 mg drug) and dissoluted in 500 ml 0.1N HCl for one hour at 37° C. (paddle speed 100 rpm). A 5 ml sample was taken at 55 minutes and the media replaced. After one hour 10 ml of a 2.5M KH2PO4/16.72% (w/v) NaOH solution was added to the HCl to shift the pH to 6.5. 5 ml samples were then removed with a plastic syringe at 5, 15, 30, 45 and 60 minutes and media replaced after every sampling time point. Each sample was centrifuged (14,000 rpm) at ambient temperature for 15 minutes and then analysed by HPLC using the following conditions: […]"}}, "data": [{"smiles": "O=C(c1ccc(-c2ccncc2)cc1)N1CCN(S(=O)(=O)c2ccc3cc(Cl)ccc3c2)CC1", "note": "[Compound 1, 1-(6-chloronaphth-2-ylsulfonyl)-4-[4-(4-pyridyl)benzoyl] piperazine]", "values": [{"measurement": "solubility", "setting": "Solubility Measurements; pH 1.2, simulated gastric fluid", "result": 250, "unit": "µg/mL"}, {"measurement": "solubility", "setting": "Solubility Measurements; pH 6.8, aqueous buffer", "result": 2, "unit": "µg/mL"}, {"measurement": "solubility", "setting": "Solubility Measurements; water", "result": "< 5", "unit": "µg/mL"}, {"measurement": "improvement of maximum supersaturated concentration by use of the polymers", "setting": "[1]", "result": "4-10 times"}]}]}
